Values of other authors as cited in patent US20250288631A1, “PHYTOTHERAPY FORMULATION FOR SEXUAL DYSFUNCTIONS” (priority 2022, published 2025).

Details: EFSA (2015)

- EFSA classification: class III
- Exposure limit (class III, 60 kg person): 90 µg/person/day
Compound: C/C=C/C=C\CC/C=C/C(=O)NCC(C)C [spilanthol]
